Assay results: PubChem BioAssay AID602298 (The Scripps Research Institute Molecular Screening Center, 2012)
Calls of active or inactive are those of the source. No rule for the calls is given here.

Biological target: Melanocortin receptor 4 (Homo sapiens) (UniProt P32245)
Experiment: PubChem AID 602298
Conditions: MC4R stable cells, MTII-stimulated cAMP, TR-FRET

Sequence of Melanocortin receptor 4 (Homo sapiens) (P32245 whole entry, looked up): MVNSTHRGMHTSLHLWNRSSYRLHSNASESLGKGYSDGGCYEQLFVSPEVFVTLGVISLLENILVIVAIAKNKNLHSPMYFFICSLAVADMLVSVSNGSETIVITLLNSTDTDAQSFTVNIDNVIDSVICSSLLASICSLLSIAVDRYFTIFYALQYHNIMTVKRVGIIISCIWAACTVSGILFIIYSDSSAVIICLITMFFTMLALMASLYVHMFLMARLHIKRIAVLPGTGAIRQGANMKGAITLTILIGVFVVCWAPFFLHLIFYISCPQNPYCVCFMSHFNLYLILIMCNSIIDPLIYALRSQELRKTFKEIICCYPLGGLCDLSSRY

For `CCOP(=O)(CCP(=O)(OCC)OCC)OCC.C[CH2][Sn]([Cl])([Cl])[CH2]C`, the IC50 was “inactive”.
